# Test results taken from article PMC6364417, “Kinase inhibitor library screening identifies synergistic drug combinations effective in sensitive and resistant melanoma cells” (Journal of Experimental & Clinical Cancer Research : CR, 2019).
# Columns and labels:
# Experiment in all cases: Kinase inhibitor library screening, PrestoBlue cell viability, 1 or 10 μM, 72 h
# 501Mel cells (parental) = details: 501Mel Parental, 72 h; for Cell viability in kinase inhibitor library screening, 501Mel Parental, 1μΜ / Cell viability in kinase inhibitor library screening, 501Mel Parental, 10μΜ: in %
# How it was run: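 Cells are treated with each inhibitor at 1 or 10 μM, incubated 72 h, then PrestoBlue reagent is added and the plate is read. Data are normalised to untreated cells.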
# [1] = system: 501Mel-GP cells (Dabrafenib-resistant); details: 501Mel GP, 72 h; for Cell viability in kinase inhibitor library screening, 501Mel GP, 1μΜ / Cell viability in kinase inhibitor library screening, 501Mel GP, 10μΜ: in %
# [2] = system: 501Mel-XP cells (Vemurafenib-resistant); details: 501Mel XP, 72 h; for Cell viability in kinase inhibitor library screening, 501Mel XP, 1μΜ / Cell viability in kinase inhibitor library screening, 501Mel XP, 10μΜ: in %
# A375 cells (parental) = details: A375 Parental, 72 h
# [3] = system: A375-GP cells (Dabrafenib-resistant); details: A375 GP, 72 h
# [4] = system: A375-XP cells (Vemurafenib-resistant); details: A375 XP, 72 h
# IGR37 cells (parental) = details: IGR37 Parental, 72 h; for Cell viability in kinase inhibitor library screening, IGR37 Parental, 1μΜ / Cell viability in kinase inhibitor library screening, IGR37 Parental, 10μΜ: in %
# [5] = system: IGR37-GP cells (Dabrafenib-resistant); details: IGR37 GP, 72 h; for Cell viability in kinase inhibitor library screening, IGR37 GP, 1μΜ: in %
# [6] = system: IGR37-XP cells (Vemurafenib-resistant); details: IGR37 XP, 72 h; for Cell viability in kinase inhibitor library screening, IGR37 XP, 1μΜ: in %
SMILES,cell viability (kinase inhibitor library screening) (501Mel cells (parental); 1μΜ) [%],cell viability (kinase inhibitor library screening) (501Mel cells (parental); 10μΜ) [%],"Cell viability in kinase inhibitor library screening, 501Mel Parental, 1μΜ (501Mel cells (parental); 1μΜ)","Cell viability in kinase inhibitor library screening, 501Mel Parental, 10μΜ (501Mel cells (parental); 10μΜ)","Cell viability in kinase inhibitor library screening, 501Mel GP, 1μΜ ([1]; 1μΜ)","Cell viability in kinase inhibitor library screening, 501Mel GP, 10μΜ ([1]; 10μΜ)","Cell viability in kinase inhibitor library screening, 501Mel XP, 1μΜ ([2]; 1μΜ)","Cell viability in kinase inhibitor library screening, 501Mel XP, 10μΜ ([2]; 10μΜ)","Cell viability in kinase inhibitor library screening, A375 Parental, 10μΜ (A375 cells (parental); 10μΜ)","Cell viability in kinase inhibitor library screening, A375 Parental, 1μΜ (A375 cells (parental); 1μΜ)","Cell viability in kinase inhibitor library screening, A375 GP, 1μΜ ([3]; 1μΜ)","Cell viability in kinase inhibitor library screening, A375 GP, 10μΜ ([3]; 10μΜ)","Cell viability in kinase inhibitor library screening, A375 XP, 1μΜ ([4]; 1μΜ)","Cell viability in kinase inhibitor library screening, A375 XP, 10μΜ ([4]; 10μΜ)","Cell viability in kinase inhibitor library screening, IGR37 Parental, 1μΜ (IGR37 cells (parental); 1μΜ)","Cell viability in kinase inhibitor library screening, IGR37 Parental, 10μΜ (IGR37 cells (parental); 10μΜ)","Cell viability in kinase inhibitor library screening, IGR37 GP, 10μΜ ([5]; 10μΜ) [%]","Cell viability in kinase inhibitor library screening, IGR37 GP, 1μΜ ([5]; 1μΜ)","Cell viability in kinase inhibitor library screening, IGR37 XP, 10μΜ ([6]; 10μΜ) [%]","Cell viability in kinase inhibitor library screening, IGR37 XP, 1μΜ ([6]; 1μΜ)",other results
"COc1cc2c(Oc3ccc(NC(=O)C4(C(=O)Nc5ccc(F)cc5)CC4)cc3F)ccnc2cc1OCCCN1CCOCC1 [Foretinib (GSK1363089, XL880)]",84.1,0.153,–,–,–,–,–,–,–,–,–,–,–,–,–,–,–,–,–,–,cell viability (kinase inhibitor library screening) ([1]; 1μΜ): 64.6%; cell viability (kinase inhibitor library screening) ([1]; 10μΜ): -0.6%; cell viability (kinase inhibitor library screening) ([2]; 1μΜ): 47.0%; cell viability (kinase inhibitor library screening) ([2]; 10μΜ): -0.9%; cell viability (kinase inhibitor library screening) (A375 cells (parental); 10μΜ): 0.654%; cell viability (kinase inhibitor library screening) (A375 cells (parental); 1μΜ): 71.0%; cell viability (kinase inhibitor library screening) ([3]; 1μΜ): 67.2%; cell viability (kinase inhibitor library screening) ([3]; 10μΜ): 0.464%; cell viability (kinase inhibitor library screening) ([4]; 1μΜ): 75.2%; cell viability (kinase inhibitor library screening) ([4]; 10μΜ): 0.7%; cell viability (kinase inhibitor library screening) (IGR37 cells (parental); 1μΜ): 85.9%; cell viability (kinase inhibitor library screening) (IGR37 cells (parental); 10μΜ): 0.2%; cell viability (kinase inhibitor library screening) ([5]; 1μΜ): 91.3%; cell viability (kinase inhibitor library screening) ([5]; 10μΜ): 0.8%; cell viability (kinase inhibitor library screening) ([6]; 1μΜ): 81.8%; cell viability (kinase inhibitor library screening) ([6]; 10μΜ): 0.556%
CC(C)NC[C@@H](C(=O)N1CCN(c2ncnc3c2[C@H](C)C[C@H]3O)CC1)c1ccc(Cl)cc1 [GDC-0068],103.4,81.6,–,–,–,–,–,–,–,–,–,–,–,–,–,–,–,–,–,–,cell viability (kinase inhibitor library screening) ([1]; 1μΜ): 92.7%; cell viability (kinase inhibitor library screening) ([1]; 10μΜ): 56.7%; cell viability (kinase inhibitor library screening) ([2]; 1μΜ): 85.0%; cell viability (kinase inhibitor library screening) ([2]; 10μΜ): 36.9%; cell viability (kinase inhibitor library screening) (A375 cells (parental); 10μΜ): 77.7%; cell viability (kinase inhibitor library screening) (A375 cells (parental); 1μΜ): 104.3%; cell viability (kinase inhibitor library screening) ([3]; 10μΜ): 79.9%; cell viability (kinase inhibitor library screening) ([4]; 10μΜ): 85.5%; cell viability (kinase inhibitor library screening) (IGR37 cells (parental); 1μΜ): 102.7%; cell viability (kinase inhibitor library screening) (IGR37 cells (parental); 10μΜ): 90.8%; cell viability (kinase inhibitor library screening) ([5]; 1μΜ): 97.0%; cell viability (kinase inhibitor library screening) ([5]; 10μΜ): 79.0%; cell viability (kinase inhibitor library screening) ([6]; 1μΜ): 95.3%; cell viability (kinase inhibitor library screening) ([6]; 10μΜ): 23.8%
OCCn1cc(-c2ccc3c(c2)CC/C3=N\O)c(-c2ccncc2)n1 [GDC-0879],–,–,79.0,63.5,108.3,94.0,97.9,89.8,28.9,49.6,85.8,44.0,91.2,47.1,66.4,27.4,88.9,99.1,60.4,110.2,–
Cc1c(CN2CCN(C(=O)[C@H](C)O)CC2)sc2c(N3CCOCC3)nc(-c3cnc(N)nc3)nc12 [GDC-0980 (RG7422)],–,–,19.3,1.0,21.4,5.1,15.9,0.8,2.2,22.3,33.1,4.0,31.2,3.3,35.3,2.0,2.9,58.6,1.5,21.6,–
C[C@@H](Oc1cc(-n2cnc3ccc(CN4CCN(C)CC4)cc32)sc1C(N)=O)c1ccccc1C(F)(F)F [GSK461364],–,–,18.0,16.7,14.1,31.3,8.8,5.4,29.0,8.9,12.0,26.2,26.8,31.7,29.0,57.5,69.3,91.5,28.5,70.5,–
CCn1c(-c2nonc2N)nc2c(C#CC(C)(C)O)ncc(OC[C@H]3CCCNC3)c21 [GSK690693],87.0,43.2,–,–,–,–,–,–,–,–,–,–,–,–,–,–,–,–,–,–,cell viability (kinase inhibitor library screening) ([1]; 1μΜ): 87.1%; cell viability (kinase inhibitor library screening) ([1]; 10μΜ): 33.9%; cell viability (kinase inhibitor library screening) ([2]; 1μΜ): 66.4%; cell viability (kinase inhibitor library screening) ([2]; 10μΜ): 17.0%; cell viability (kinase inhibitor library screening) (A375 cells (parental); 10μΜ): 99.2%; cell viability (kinase inhibitor library screening) ([3]; 1μΜ): 99.1%; cell viability (kinase inhibitor library screening) ([3]; 10μΜ): 92.8%; cell viability (kinase inhibitor library screening) ([4]; 1μΜ): 96.1%; cell viability (kinase inhibitor library screening) ([4]; 10μΜ): 87.9%; cell viability (kinase inhibitor library screening) (IGR37 cells (parental); 1μΜ): 104.5%; cell viability (kinase inhibitor library screening) (IGR37 cells (parental); 10μΜ): 68.7%; cell viability (kinase inhibitor library screening) ([5]; 1μΜ): 93.2%; cell viability (kinase inhibitor library screening) ([5]; 10μΜ): 65.9%; cell viability (kinase inhibitor library screening) ([6]; 1μΜ): 94.0%; cell viability (kinase inhibitor library screening) ([6]; 10μΜ): 18.7%
O=C1NC(=O)/C(=C/c2ccc3nccc(-c4ccncc4)c3c2)S1 [GSK1059615],–,–,65.3,1.4,45.2,1.5,43.3,0.262,4.4,62.0,59.6,4.2,54.8,3.7,82.5,4.7,6.4,75.2,2.2,58.7,–
